We go through seven compounds from patent publication US20180362473A1, “BIOORTHOGONAL METHODS AND COMPOUNDS” (The University Court of the University of Edinburgh, priority 2013, published 2018).

The EC50 is the midpoint of the concentration-response curve.

Where two headings read alike, the source gives them in different places.

Common to all, as to format: cell-based
Series [1] has as its system colorectal HCT116 cells. As to the kind of experiment: PrestoBlue cell viability assay, 5 days treatment. Particulars: for cytotoxic effect / effect on cell viability of prodrug alone: HCT116, without palladium, 5 days, doses up to 1,000 μM (FIG. 18A: 0.1-300 μM); for toxigenic effect of prodrug combined with Pd^0-resins (BOOM conversion): HCT116, prodrug 100 μM + Pd^0-resin 1 mg/mL. As for the experimental part:
(§1) The toxicities of 5FU and its prodrugs were compared by performing dose-response studies with 5FU and Pro-5FU (0.01 μM to 1 mM). Doses of Pro-5FU and 5FU (0.01, 0.03, 0.1, 0.3, 1, 3, 10, 30 and 100 μM, for both cell lines, and additional doses of 300 μM and 1,000 μM for colorectal HCT116 cells) were incubated with cells for 5 days and cell viability measured to determine the corresponding EC values. Cell viability was analysed by fluoresce intensity nm; nm) after 45 min incubation with PrestoBlue™ Reagent (Life Technologies).
(§2) The toxigenic effect as a result of in situ generation of 5FU in cell culture was determined by incubating colorectal HCT116 cells or pancreatic BXPc-3 cells in tissue culture media containing 0.1% (viv) DMSO and a) Pd^0-resin (1 mg/mL, negative control); b) prodrug (negative, control); or c) Pd^0-resin (1 mg prodrug (reaction assay). Cells incubated in 0.1% (v/v) DMSO in media was used as an untreated cell reference standard (100% viability). A PrestoBlue® cell viability assay as described above was carried out and fluorescent intensities compared to the untreated cell control. Prodrug concentrations were 100 μM for HCT116 cells, and 30 μM for BxPC-3 cells.
(§3) HCT116 and BXPc-3 cells were plated in Dulbecco's Modified Eagle Media (DMEM) and Roswell Park Memorial Institute (RPMI) respectively, supplemented with serum (10% FBS) and L-glutamine (2 mM). Cells were seeded in a 96 wail plate format with a density of either 30.000 cells and incubated for 48 h at 37° C. and 5% CO2 before treatment. Each well was then replaced with fresh media containing: Pd^0-resins (1 mg/ml) (negative control); prodrug (0.01 μM to 1 mM) in DMSO (0.1% v/v) (negative control); 5FU (0.01 μM to 1 mM) in DMSO (0.1% v/v) (positive control); or a combination of Pd^0 resin+prodrug (0.01 μM to 1 mM in 0.1% v/v DMSO). Cells incubated in 0.1% (v/v) DMSO in media were used as untreated cell reference standard (i.e. 100% cell viability). Cells were incubated in the fresh media for 5 days. PrestoBlue cell viability reagent (Life Technologies) (10% v/v) was then added to each well and the plate incubated for 45 min, Fluorescence intensity values (detected using a PerkinElmer EnVision 2101 multilabel reader with excitation filter at 540 nm and emissions filter at 590 nm) were determined relative to the untreated cell control.

Series [2] relates to total p53 protein and phosphorylated p53 (Serine 15) in HCT116 cells. As to the kind of experiment: Zeptosens Reverse Phase Protein Microarray analysis. The settings on record: HCT116, 100 μM, 24 h exposure. As for the experimental part:
Post-translational modifications of cancer relevant pathways (including p53) were quantified by antibody-based proteomics across time-series studies using Zeptosens Reverse Phase Protein Microarray analysis.
Cells were plated in their respective supplemented media in a 6 well plate at a density of 240,000 cells/mL and incubated for 46 h. Before adding to the cells, Fro-5FU (100 μM for HCT116) and Pd^0-resins (1 mg/mL) were incubated for 24h to overcome the time relapse required to convert Pro-5FU into 5FU. Cells were treated with the Pd^8 resin+Pro-5FU combination and the controls (as before: untreated cells; Pd^0; Pro-5FU; and 5FU) and incubated for 6 and 24 h. Afterwards, the cells were washed with PBS (2×3 mL) and lysed with Zeptosens CLB1 lysis buffer (90 μl). Samples were analyzed by Zeptosens RPPA using the following specific conditions. Tumor cell lysates were normalized to a uniform protein concentration with spotting buffer CSBL1 (Zeptosens-Bayer) prior to preparing a final 4-fold concentration series of; 0.2; 0.15; 0.1 and […]. […] A weighted linear fit through the 4-fold concentration series was used to calculate relative fluorescence intensity (RFI) value for each sample replicate. […] Abundance levels of total p53 protein and phosphorylated p53 (Serine 15) were plotted as RFI data calculated by the ZeptoView™ 3.1 software.

A further series relates to BxPC-3 cells. As to the kind of experiment: Real-time confluence study (Incucyte live-cell imaging). Particulars: BxPC-3, 30 μM, 5 days (120 h). On the procedure: FIGS. 9A and 9B show real-time cell confluence study data for Pro-5FU and 5FU (HCT116 cells in FIG. 9A and BXPc-3 cells in FIG. 9B) plotting cell proliferation (indicated by % phase object confluence) against time. […]
(§4) To study the phenotypic effect of the prodrug catalyst system compared to 5FU, cell proliferation was monitored for 5 days (120 h) using the high-content live-cell imaging system Incucyte™ Essen BioScience) placed in an incubator (5% CO2, 37° C.). Cell confluence analysis and supplementary movies 1 and 2 were carried out using the Incucyte software. Experiments (performed as described above for the dose response cell viability assay) were imaged by time-lapse contrast phase microscopy and cell growth represented as a function of total cell confluence.

In a further series the test system is HCT116 cells. The series is described as above. Particulars: HCT116, 100 μM, 5 days (120 h). On the procedure: FIGS. 9A and 9B show real-time cell confluence study data for Pro-5FU and 5FU (HCT116 cells in FIG. 9A and BXPc-3 cells in FIG. 9B) plotting cell proliferation (indicated by % phase object confluence) against time. Cell proliferation was monitored for 5 days (120 h) using the high-content live-cell imaging system Incucyte™ (Essen BioScience) placed in an incubator (5% CO2, 37° C.), Pro-5FU and 5FU were used at 100 μM and 10 μM for HCT116 and BXPc-3 cells, respectively.
as §4

The test system of series [3] is pancreatic BxPC-3 cells. As to the kind of experiment: PrestoBlue cell viability assay, 5 days treatment. The settings on record: for EC50: Homo sapiens, 120 h, PrestoBlue; for toxigenic effect of prodrug combined with Pd^0-resins (BOOM conversion): BxPC-3, prodrug 30 μM + Pd^0-resin 1 mg/mL. As for the experimental part: as §1, §2, §3
Series [4] deals with pancreatic BxPC-3 cells. As to the kind of experiment: Test for competitive inhibition by prodrug (cell viability). Particulars: BxPC-3, 5FU 1 μM + Pro-5FU 0.1-1,000 μM, prodrug/drug ratio up to 100:1. As for the experimental part:
(§5) Cells were incubated with 5FU (10 μM for HCT116 cells and 1 μM for BxPC-3 cells) in combination with increasing doses of Pro-5FU (0.1-1,000 μM), and cell viability determined.

The test system of series [5] is colorectal HCT116 cells. The series is described as above. The settings on record: HCT116, 5FU 10 μM + Pro-5FU 0.1-1,000 μM, prodrug/drug ratio up to 100:1. As for the experimental part:
as §5

With `O=c1[nH]c(=O)n([C@H]2C[C@H](O)[C@@H](CO)O2)cc1F` [FUDR, floxuridine], the “times more potent than 5-FU” value with colorectal HCT116 cells [1] was “around 50 times”.

Regarding `O=c1[nH]cc(F)c(=O)[nH]1` [Compound 5FU, 5-fluorouracil], the “abundance of total and Ser15-phosphorylated p53” value in series [2] is listed as “overexpressed”. Besides, the “cell growth (confluence) vs time” value in the series on BxPC-3 cells and in the series with HCT116 cells was “decreased rapidly after a few hours” in each case. In addition, the EC50 worked out at 136 nM in the series with pancreatic BxPC-3 cells [3] (BXPc-3, 5 days incubation, read-out: EC50 5FU); 136 nM in the series with pancreatic BxPC-3 cells [3] (BxPC-3, 5 days incubation, read-out: EC50); 2000 nM in the series with colorectal HCT116 cells [1] (Homo sapiens, HCT-116, 120 h, HCT116, 5 days incubation, PrestoBlue, read-out: EC50 5FU).

Take `C#CCn1cc(F)c(=O)[nH]c1=O` [Pro-5FU]: the “effect of prodrug on cytotoxicity of 5FU” value with pancreatic BxPC-3 cells [4] and in the series on colorectal HCT116 cells [5] was “no antagonistic effect” throughout. For the same compound, in series [2], the “abundance of total and Ser15-phosphorylated p53” value is listed as “no induction”. Besides, the “fold reduction in effect versus 5FU” value in the series with pancreatic BxPC-3 cells [3] (BxPC-3, prodrug without palladium) was “greater than 700 fold”. Besides, the “fold reduction in effect, EC50 (Pro-5FU)/EC50 (5FU)” value with colorectal HCT116 cells [1] (HCT116, prodrug without palladium) was “greater than 500 fold”. The “cytotoxic effect / effect on cell viability of prodrug alone” value in the series on colorectal HCT116 cells [1] is “no effect”.

As to `C#CCn1c(=O)[nH]cc(F)c1=O` [Compound 6], the “cytotoxic effect / effect on cell viability of prodrug alone” value in the series with colorectal HCT116 cells [1] is reported as “no effect”.

With `O=c1[nH]c(=O)n(Cc2ccccc2)cc1F` [Bn-5FU], the “toxigenic effect of prodrug combined with Pd^0-resins (BOOM conversion)” value in the series with pancreatic BxPC-3 cells [3] and in the series with colorectal HCT116 cells [1] was “low levels of toxicity” throughout.

As for `C#CCn1c(=O)c(F)cn([C@H]2CC(O)[C@@H](CO)O2)c1=O` (stereo partly shown) [Compound 11, 3-propergyl-floxuridine], the “times less cytotoxic effect on cell viability than floxuridine” value in the series on colorectal HCT116 cells [1] (HCT116, dose range 0.003-30 μM, without palladium) is on record as “over 1000 times”.

`C=CCn1cc(F)c(=O)[nH]c1=O` [All-5FU]: the “toxigenic effect of prodrug combined with Pd^0-resins (BOOM conversion)” value in the series with pancreatic BxPC-3 cells [3] and with colorectal HCT116 cells [1] was “No appreciable cytotoxicity” throughout.
